{"source": "BigSolDB 2.1"}
{"molecule": "CN(Cc1ccccc1)CN1C(=O)C(=NNC(=O)c2ccccc2OCc2ccccc2)c2ccccc21", "values": [{"measurement": "solubility (mole fraction)", "setting": "in PEG-400, 298.15 K", "result": 0.007}, {"measurement": "solubility (mole fraction)", "setting": "in PEG-400, 303.15 K", "result": 0.00778}, {"measurement": "solubility (mole fraction)", "setting": "in PEG-400, 308.15 K", "result": 0.00883}, {"measurement": "solubility (mole fraction)", "setting": "in PEG-400, 313.15 K", "result": 0.00988}, {"measurement": "solubility (mole fraction)", "setting": "in PEG-400, 318.15 K", "result": 0.0113}, {"measurement": "solubility (mole fraction)", "setting": "in water, 298.15 K", "result": "1.07e-06"}, {"measurement": "solubility (mole fraction)", "setting": "in water, 303.15 K", "result": "1.48e-06"}, {"measurement": "solubility (mole fraction)", "setting": "in water, 308.15 K", "result": "1.89e-06"}, {"measurement": "solubility (mole fraction)", "setting": "in water, 313.15 K", "result": "2.39e-06"}, {"measurement": "solubility (mole fraction)", "setting": "in water, 318.15 K", "result": "2.97e-06"}]}
